Source: patent US9980972B2, “Rho kinase inhibitors for use in treating familial amyotrophic lateral sclerosis” (GEORG-AUGUST-UNIVERSITÄT GÖTTINGEN STIFTUNG ÖFFENTLICHEN …, priority 2012, dated 2018)

What was measured:
[1] = test system: SOD1 G93A mouse model of ALS; test: Survival (age at death) in SOD1 G93A mouse model of ALS; assay type: in vivo; settings: for survival proportions over time: non-differentiated by gender
Description: High-copy B6SJL-Tg(SOD1*G93A)1Gur/J were obtained from Jackson Labs (Stock Number 002726; Bar Harbor, USA) that had originally been produced by Gurney et al. (Gurney, Pu et al. 1994). The colony was maintained by crossing C57BL/6 males harboring the transgene with wild-type SJL females. To verify presence of the transgene in the F1 progeny, tail biopsies were collected from 14-day-old pups and genotyped using PCR. At the age of 35-45 days mice were moved to the testing facility to acclimate to the new environment with a 12-h light/dark cycle before being assigned to a study.
At 50 days (presymptomatic, d50) or 80 days of age (symptomatic, d80) mice were separated into Fasudil-30 (Fas30)- and Fasudil-100 (Fas100)-Treatment or Vehicle Control (Veh) groups. Prior to any treatment, groups were constituted so as to minimize between-group variability by using the following criteria. Groups were balanced with respect to gender and body weight within gender. In addition, groups were age-matched and littermate-matched. […] The study was observer-blinded.
To reach sufficient CSF levels of Fasudil the inventors administered Fasudil (LC Labs, Woburn, USA; product number F-4660) at a low concentration of […] (Fas30) or at a high concentration of 50 mg (Fas100) in 100 ml drinking water. Control groups received the respective amount of isotonic drinking water termed as vehicle (Veh).
Chronic oral treatment with a low dose of Fasudil (F30) or a high dose of Fasudil (F100) was started either presymptomatically at day 50 or symptomatically at day 80 and continued until death.
Survival. Date and cause of death were recorded for each mouse. For humane reasons, animals are closely monitored and sacrificed as moribund prior to actual death using criteria for severe moribundity. To determine duration of survival reliably and humanely, the moribund state, defined as the inability of mice to right themselves 30 seconds after being placed on a side (a neurological score of 4) was used. The moribund mice were scored as “dead”, and were euthanized using carbon dioxide.
The data were then analyzed using Kaplan-Meier survival fit analysis with the Log-Rank and Wilcoxon tests for statistical significance. Cox proportional hazards analysis was also performed to determine hazard ratios and test for statistical significance of their differences using the Effect Likelihood Chi Square test. Statistical analyses were performed using Statistica 9.1 (StatSoft, Hamburg, Germany). P-values less than 0.05 were taken to be statistically significant.
The criteria to terminate the therapy study (later referred to as time of death) were fulfilled if the animals had reached the terminal neurological scoring or had lost a defined percentage of the maximal body weight. This time point then reflects the survival time of the animals whereas disease duration was measured from onset of disease until time of death.

[2] = test system: SOD1 G93A mouse model of ALS; test: Disease duration (onset until death) in SOD1 G93A mice; assay type: in vivo
Description: Disease duration. This parameter was selected in order analyze the treatment effects under a clinically relevant situation of the time from disease onset until death. Disease duration is defined as beginning from the appearance of the first clinical symptoms until death.

Structure (SMILES): O=S(=O)(c1cccc2cnccc12)N1CCCNCC1 [Fasudil, 1-(5-isoquinolinesulfonyl)homopiperazine]
- average survival ([1]; female, presymptomatic (d50) treatment, Fas30 (30 mg/kg/day in drinking water), control 130.4 days): 141.8 days
- survival ([1]; male, presymptomatic (d50), Fas30): trend in prolongation of survival
- survival proportions over time ([1]; presymptomatic (d50), Fas30): profited significantly from the treatment
- survival proportions over time ([1]; symptomatic (d80), Fas30): did not show a statistically significant difference
- survival proportions over time ([1]; symptomatic (d80), Fas100 (100 mg/kg/day)): did not show a statistically significant difference
- survival effect ([1]; presymptomatic (d50), Fas100, compared with Fas30): less prominent
- survival ([1]; symptomatic treatment start, female or male group): not able to prolong survival
- disease duration ([2]; presymptomatically treated female mice): prolonged time
- disease duration ([2]; symptomatically treated groups): did not show any significant alterations
